From patent publication US12673035B2, “Solid dosage forms of elafibranor” (Genfit, priority 2023, dated 2026)

Experiments:
[1] = system: rat; experiment: Acute toxicity study, single oral doses, rat; assay type: in vivo
Protocol: (§1) According to acute toxicity study results, it can be concluded that elafibranor is extremely safe when administered as single oral doses in rat and mouse, since no sign of toxicity was detected up to the dose of 1000 mg/kg.

[2] = system: mouse; experiment: Acute toxicity study, single oral doses, mouse; assay type: in vivo
Protocol: as §1

[3] = system: patients with PBC and inadequate response to Ursodeoxycholic acid (UDCA); experiment: Phase 2 double-blind, randomized, placebo-controlled trial in PBC; assay type: in vivo, human; settings: for mean relative change from baseline to endpoint in serum ALP / median relative change from baseline to endpoint in the pruritus VAS / treatment effect estimate vs placebo, serum ALP (supportive analysis, ANCOVA with baseline ALP as covariate) / mean relative change from baseline to endpoint in GGT / treatment effect estimate vs placebo, GGT (non-parametric randomization-based ANCOVA) / response rates defined by at least 10%, 20% and 40% decrease in ALP from baseline to endpoint, compared to placebo: 12 weeks; for mean relative change from baseline to endpoint in GGT / treatment effect estimate vs placebo, GGT (non-parametric randomization-based ANCOVA) / response rates defined by at least 10%, 20% and 40% decrease in ALP from baseline to endpoint, compared to placebo: mITT set; for response rates defined by at least 10%, 20% and 40% decrease in ALP from baseline to endpoint, compared to placebo: Fishers exact test, p<0.001; for response rate as defined by Paris I risk scores (ALP≤3×ULN, AST≤2×ULN, bilirubin within normal limits) / response rate as defined by Paris II risk scores (ALP≤1.5×ULN, AST≤1.5×ULN, bilirubin within normal limits) / response rate as defined by Toronto I risk scores (ALP≤1.67×ULN) / response rate as defined by Toronto II risk scores (ALP≤1.75×ULN): baseline to endpoint
Protocol: This example describes a double-blind, randomized, placebo-controlled trial to evaluate the efficacy and safety of elafibranor 80 mg and 120 mg once daily (qd) versus placebo in a PBC population.
The study included a screening visit, followed by 12 weeks of double-blind treatment period. Patients attended study visits at randomization, Week 2, 4, 8, 12 during the treatment period.
(§2) Elafibranor was administered per os, once daily at 80 mg or 120 mg, for 12 weeks, in the form of tablets of the invention (Formulations 4 and 3). The elafibranor 120 mg and 80 mg tablets contained elafibranor (active ingredient) and excipients (microcrystalline cellulose, povidone, croscarmellose, anhydrous colloidal silica, magnesium stearate, Opadry® II white). The white tablets were provided to the participants in aluminum blisters.
The primary objectives were to compare the effect of daily oral administration of elafibranor 80 mg and 120 mg on changes in serum alkaline phosphatase (ALP) to that of placebo in patients with PBC and inadequate response to Ursodeoxycholic acid (UDCA).
The primary endpoint of the study was to evaluate the efficacy of elafibranor 80 mg or 120 mg with respect to relative change from baseline in serum ALP levels compared to placebo.
Absolute changes in serum ALP levels were monitored from Baseline to week 2, 4, 8 and 12.
The treatment effect estimate was −52.0% (95% CI [−62.5; −41.5]) for the elafibranor 80 mg treatment group and −43.9% (95% CI [−55.7; −32.1]) for the elafibranor 120 mg treatment group.
The primary efficacy supportive analysis conducted using an ANCOVA with baseline ALP as a covariate was consistent with the primary efficacy analysis. The treatment effect estimate was −51.4% (95% CI [−63.3; −39.5]) for the elafibranor 80 mg treatment group and −43.9% (95% CI [−55.8; −31.9]) for the elafibranor 120 mg treatment group.
The percentage of patients was calculated who met the definition of PBC responder criteria applying the Paris I, Toronto I, Toronto II, […], Mayo II, and Barcelona disease prognostic risk criteria. Paris I risk scores were defined as ALP≤3×ULN and AST≤2×ULN and bilirubin within normal limits.
Paris II risk scores were defined as ALP≤1.5×ULN and AST≤1.5×ULN and bilirubin within normal limits.
Toronto I risk scores were defined as ALP≤1.67×ULN.
Toronto II risk scores were defined as ALP≤1.75×ULN.
Considering that pruritus is a preeminent adverse event in subjects with PBC, assessment of pruritus was also considered. More specifically, the change from baseline in pruritus (through 5D-itch scale (measuring the degree, duration, direction [improvement or worsening], disability [effect on daily activities], and distribution of itching) and visual analogue scale for pruritus (VAS).
The 5D-itch scale is a reliable, multidimensional measure of itching that has been validated in patients with chronic pruritus to detect changes over time (Elman S, et al., The 5-D itch scale: a new measure of pruritus. Br J Dermatol. 2010; 162(3):587-593). The VAS is a reliable and validated method of pruritus assessment (Reich A, et al., Visual analogue scale: evaluation of the instrument for the assessment of pruritus. Acta Derm Venereol. 2012; 92(5):497-501).

[4] = system: patients with PBC with an inadequate response or intolerance to Ursodeoxycholic acid (UDCA); experiment: Phase 3 double-blind, randomized, placebo-controlled trial in PBC; assay type: in vivo, human; settings: 80 mg once daily
Protocol: This example describes a double-blind, randomized, placebo-controlled trial to evaluate the efficacy and safety of elafibranor 80 mg once daily (qd) versus placebo in a PBC population.
The study included a screening visit, followed by 52 weeks of double-blind treatment period. Patients attended study visits at randomization, Week 4, 13, 26, and 39 during the treatment period.
as §2, with “80” for “80 mg or 120”, “52” for “12”, “(Formulation 4).” for “(Formulations 4 and 3).”, “elafibranor” for “elafibranor 120 mg and”
The primary objectives were to compare the effect of daily oral administration of elafibranor 80 mg on changes in relevant biochemical indicators of cholestasis or in pruritus to that of placebo in patients with PBC with an inadequate response or intolerance to Ursodeoxycholic acid (UDCA).

[5] = system: liver function of subjects; experiment: Phase 2a clinical studies and Phase 2b clinical trial, liver function; assay type: in vivo, human; settings: 80 mg/day for 1 to 3 months (Phase 2a); 80 mg/day and 120 mg/day for 12 months (Phase 2b)
[6] = system: patients with PBC with an inadequate response or intolerance to Ursodeoxycholic acid (UDCA); settings: phase 3 trial NCT04526665, N Engl J Med 2023; cited from earlier work
[7] = Particle size analysis of jet-milled (micronized) elafibranor; assay type: physicochemical
Text: Particle size of agglomeration was identified as playing a primary role in the dissolution and variability in the blend uniformity and content uniformity of tablet formulations. In order to obtain suitable particle size distribution, milling of elafibranor was investigated. The micronisation process acts to accelerate grains of powder, with an air jet, in a tornado like flow path within the micronisation chamber of the mill. As particles travel in the circular path, they collide, which leads to a reduction in particle size. Centrifugal force directs larger particles to the outside of the chamber and smaller particles are concentrated in the centre of the mill where they can be transferred to the outlet when the appropriate particle size has been reached.
The micronisation process of elafibranor has been performed with the following jet-mill equipment: Microniser Alpine 200 Aeroplex in ambient conditions of temperature and hygrometry.
The feeder delivers the dosage to the microniser by two screws. This system allows a regularity of the flow. A disposable sleeve is used to separate the air and the micronised product at the end of the microniser.
The micronised elafibranor powder is then collected into polyethylene bags and the obtained weight at the end of the micronisation operation has been recorded.
acceptance criteria: D50%≤5 μm and D90%≤15 μm

[8] = mean of clinical batches #1 to #7

## CSc1ccc(C(=O)/C=C/c2cc(C)c(OC(C)(C)C(=O)O)c(C)c2)cc1 [elafibranor, 2-[2,6-dimethyl-4-[(E)-3-(4-methylsulfanylphenyl)-3-oxoprop-1-enyl]phenoxy]-2-methylpropanoic acid]
[1]
  dose up to which no sign of toxicity was detected: ≥ 1000 mg/kg
[2]
  dose up to which no sign of toxicity was detected: ≥ 1000 mg/kg
[3]; 80 mg once daily per os, 12 weeks (Formulation 4 tablets)
  treatment effect estimate vs placebo, relative change from baseline in serum ALP (primary analysis, non-parametric randomization-based ANCOVA): −52.0%
[3]; 80 mg once daily
  mean relative change from baseline to endpoint in serum ALP: −48.3%
  median relative change from baseline to endpoint in the pruritus VAS: −23.7%
  treatment effect estimate vs placebo, serum ALP (supportive analysis, ANCOVA with baseline ALP as covariate): −51.4%
  mean relative change from baseline to endpoint in GGT: −37.1%
  treatment effect estimate vs placebo, GGT (non-parametric randomization-based ANCOVA): −38.6%
  response rates defined by at least 10%, 20% and 40% decrease in ALP from baseline to endpoint, compared to placebo: statistically significantly greater proportion of responders
  response rate as defined by Paris I risk scores (ALP≤3×ULN, AST≤2×ULN, bilirubin within normal limits): 80.0%
  response rate as defined by Paris II risk scores (ALP≤1.5×ULN, AST≤1.5×ULN, bilirubin within normal limits): 53.3%
  response rate as defined by Toronto I risk scores (ALP≤1.67×ULN): 66.7%
  response rate as defined by Toronto II risk scores (ALP≤1.75×ULN): 66.7%
[3]; 120 mg once daily per os, 12 weeks (Formulation 3 tablets)
  treatment effect estimate vs placebo, relative change from baseline in serum ALP (primary analysis, non-parametric randomization-based ANCOVA): −43.9%
[3]; 120 mg once daily
  mean relative change from baseline to endpoint in serum ALP: −40.6%
  median relative change from baseline to endpoint in the pruritus VAS: −49.5%
  treatment effect estimate vs placebo, serum ALP (supportive analysis, ANCOVA with baseline ALP as covariate): −43.9%
  mean relative change from baseline to endpoint in GGT: −40.0%
  treatment effect estimate vs placebo, GGT (non-parametric randomization-based ANCOVA): −39.9%
  response rates defined by at least 10%, 20% and 40% decrease in ALP from baseline to endpoint, compared to placebo: statistically significantly greater proportion of responders
  response rate as defined by Paris I risk scores (ALP≤3×ULN, AST≤2×ULN, bilirubin within normal limits): 78.6%
  response rate as defined by Paris II risk scores (ALP≤1.5×ULN, AST≤1.5×ULN, bilirubin within normal limits): 50.0%
  response rate as defined by Toronto I risk scores (ALP≤1.67×ULN): 78.6%
  response rate as defined by Toronto II risk scores (ALP≤1.75×ULN): 78.6%
[4]; 52 weeks (Formulation 4), 55 of 108 patients
  biochemical response (primary end point), patients: 51%
[4]; 52 weeks, 95% CI 32 to 57
  difference vs placebo in biochemical response: 47 percentage points
[4]; at week 52
  patients in whom the alkaline phosphatase level normalized: 15%
[4]; at week 52, 95% CI 6 to 23
  difference vs placebo in alkaline phosphatase normalization: 15 percentage points
[4]; through week 52, moderate-to-severe pruritus, 95% CI −1.99 to 0.42, P=0.20
  difference vs placebo in least-squares mean change on the WI-NRS: −0.78
[4]; patients with moderate-to-severe pruritus
  least-squares mean change from baseline through week 52 on the WI-NRS: −1.93
[5]
  effects on liver function, relevant to PBC: Beneficial effects
[6]
  improvements in relevant biochemical indicators of cholestasis vs placebo: significantly greater improvements in relevant biochemical indicators of cholestasis than placebo

## CSc1ccc(C(=O)/C=C/c2cc(C)c(OC(C)(C)C(=O)O)c(C)c2)cc1 [micronized elafibranor]
[7]; clinical batch #1
  D50%: 2.387 μm
  D90%: 6.292 μm
[7]; clinical batch #2
  D50%: 3.511 μm
  D90%: 10.06 μm
[7]; clinical batch #3
  D50%: 2.53 μm
  D90%: 6.439 μm
[7]; clinical batch #4
  D50%: 4.079 μm
  D90%: 10.895 μm
[7]; clinical batch #5
  D50%: 2.171 μm
  D90%: 6.589 μm
[7]; clinical batch #6
  D50%: 2.089 μm
  D90%: 6.495 μm
[7]; clinical batch #7
  D50%: 2.523 μm
  D90%: 6.671 μm
[7]; [8]
  D50% mean: 2.756 μm
  D90% mean: 7.634 μm
